The structures appear in SMILES notation.

The experiment deals with T1, USP25 (USP25-His6, Boston Biochem E-546) (Homo sapiens, UniProt Q9UHP3).
T1 construct: His6; purchased Boston Biochem E-546
T1 sequence (Q9UHP3 1-1055): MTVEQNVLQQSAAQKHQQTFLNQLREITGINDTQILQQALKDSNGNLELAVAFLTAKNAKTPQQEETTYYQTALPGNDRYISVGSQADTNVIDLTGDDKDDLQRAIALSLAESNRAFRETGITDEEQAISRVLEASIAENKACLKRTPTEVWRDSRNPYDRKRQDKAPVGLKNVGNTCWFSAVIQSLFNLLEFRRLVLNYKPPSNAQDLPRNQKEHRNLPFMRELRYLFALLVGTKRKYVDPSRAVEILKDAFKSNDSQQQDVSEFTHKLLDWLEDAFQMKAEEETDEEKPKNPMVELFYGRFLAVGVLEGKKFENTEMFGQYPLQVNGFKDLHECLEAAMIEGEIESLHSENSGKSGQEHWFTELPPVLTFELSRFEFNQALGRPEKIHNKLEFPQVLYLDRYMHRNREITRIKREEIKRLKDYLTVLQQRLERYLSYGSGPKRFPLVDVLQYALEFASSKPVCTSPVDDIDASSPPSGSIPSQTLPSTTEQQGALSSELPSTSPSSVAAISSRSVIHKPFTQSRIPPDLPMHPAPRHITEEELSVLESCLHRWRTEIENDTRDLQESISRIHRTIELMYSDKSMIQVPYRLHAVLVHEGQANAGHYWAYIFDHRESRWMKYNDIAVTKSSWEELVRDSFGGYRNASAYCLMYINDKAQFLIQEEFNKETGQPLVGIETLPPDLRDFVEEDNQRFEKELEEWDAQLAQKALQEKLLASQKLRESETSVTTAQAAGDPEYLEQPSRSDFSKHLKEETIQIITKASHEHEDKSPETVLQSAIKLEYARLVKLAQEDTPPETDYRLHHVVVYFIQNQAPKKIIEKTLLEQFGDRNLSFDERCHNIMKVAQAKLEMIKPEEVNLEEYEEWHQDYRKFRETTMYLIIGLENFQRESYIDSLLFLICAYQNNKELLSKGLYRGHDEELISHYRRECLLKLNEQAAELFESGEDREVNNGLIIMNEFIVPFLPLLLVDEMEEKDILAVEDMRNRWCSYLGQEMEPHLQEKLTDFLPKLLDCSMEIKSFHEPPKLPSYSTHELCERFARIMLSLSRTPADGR
The experiment can be described thus: Ubiquitin-Rhodamine 110 Assay for USP25 Activity, Example A-2. The experiment is classed as biochemical. The conditions noted are these: Ubiquitin-Rhodamine 110 assay, Example A-2; read-out: USP25 A-2 IC50 range. Put shortly:
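USP25-His6 (75 pM) was preincubated with compound (10-point, 3-fold series, 25 μM to 1.3 nM) for 30 min in 20 mM Tris-HCl pH 8.0, 3 mM BME, 0.03% BGG, 0.01% Triton X-100. Ub-Rh110 (25 nM, <<Km) was then added for 45 min at room temperature, citric acid-stopped, and fluorescence read at 485/535 nm.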
A word on the IC50: it is the midpoint of a concentration-inhibition curve. With `CO[C@H]1CN(c2ccc3c(c2)OC[C@H](NC(=O)c2sc4nc(C)ccc4c2N)C3)CC[C@@H]1N` [Example 128, 3-amino-N-[(3R)-7-[(3S,4S)-4-amino-3-methoxypiperidin-1-yl]-3,4-dihydro-2H-1-benzopyran-3-yl]-6-methylthieno[2,3-b]pyridine-2-carboxamide], the IC50 was in the range of 200 to 2000 nM.
Then `CO[C@H]1CN(c2cc(F)c3c(c2C#N)OC[C@H](NC(=O)c2sc4nc(C)cnc4c2N)C3)C[C@@H]1N` [Example 174, 7-amino-N-[(3R)-7-[(3S,4S)-3-amino-4-methoxypyrrolidin-1-yl]-8-cyano-5-fluoro-3,4-dihydro-2H-1-benzopyran-3-yl]-3-methylthieno[2,3-b]pyrazine-6-carboxamide], with more than 2000 nM; and `Cc1ccc2c(N)c(C(=O)N[C@H]3CCc4cc(N5CC6CCC(C5)N6)ccc4C3)oc2n1` [Example 171, 3-amino-N-[(2S)-6-{3,8-diazabicyclo[3.2.1]octan-3-yl]-1,2,3,4-tetrahydronaphthalen-2-yl]-6-methylfuro[2,3-b]pyridine-2-carboxamide], with more than 2000 nM; and `CO[C@H]1CCN(c2ccc3c(c2)OC[C@H](NC(=O)c2sc4nc(C)ccc4c2N)C3)C[C@@H]1N` [Example 119, 3-amino-N-[(3R)-7-[(3S,4S)-3-amino-4-methoxypiperidin-1-yl}-3,4-dihydro-2H-1-benzopyran-3-yl]-6-methylthieno[2,3-b]pyridine-2-carboxamide], with 200 to 2000 nM.
With `CO[C@@H]1CN(c2ccc3c(c2)CC[C@H](NC(=O)c2sc4nc(C)ccc4c2N)C3)C[C@@H]1N` [Example 143, 3-amino-N-[(2S)-6-[(3S,4R)-3-amino-4-methoxypyrrolidin-1-yl]-1,2,3,4-tetrahydronaphthalen-2-yl]-6-methylthieno[2,3-b]pyridine-2-carboxamide], the IC50 was 200 to 2000 nM.
Then `Cc1ccc2c(N)c(C(=O)N[C@H]3COc4c(F)c(N5C[C@H]6C[C@@H]5CN6)cc(F)c4C3)sc2n1` [Example 111, 3-amino-N-[(3R)-7-[(1R,4R)-2,5-diazabicyclo[2.2.1]heptan-2-yl]-5,8-difluoro-3,4-dihydro-2H-1-benzopyran-3-yl]-6-methylthieno[2,3-b]pyridine-2-carboxamide], with 50 to 200 nM.
The figure for `Cc1ccc2c(N)c(C(=O)N[C@H]3COc4cc(N5C[C@@H]6OCCN[C@@H]6C5)ccc4C3)sc2n1` [Example 154, N-[(3R)-7-[(4aR,7aS)-octahydropyrrolo[3,4-b]morpholin-6-yl]-3,4-dihydro-2H-1-benzopyran-3-yl]-3-amino-6-methylthieno[2,3-b]pyridine-2-carboxamide] is 200 to 2000 nM.
In the case of `CO[C@H]1CN(c2cc3c(cc2C#N)C[C@@H](NC(=O)c2sc4nc(C)cnc4c2N)CO3)C[C@@H]1N` [Example 176, 7-amino-N-[(3R)-7-[(3S,4S)-3-amino-4-methoxypyrrolidin-1-yl]-6-cyano-3,4-dihydro-2H-1-benzopyran-3-yl]-3-methylthieno[2,3-b]pyrazine-6-carboxamide], the half-inhibitory concentration (IC50) was in the range of 50 to 200 nM.
For the molecule `COC[C@@H]1CN(c2ccc3c(c2)OC[C@H](NC(=O)c2sc4nc(C)ccc4c2N)C3)C[C@@H]1N` [Example 161, 3-amino-N-[(3R)-7-[(3R,4R)-3-amino-4(methoxymethyl)pyrrolidin-1-yl]-3,4-dihydro-2H-1-benzopyran-3-yl]-6-methylthieno[2,3-b]pyridine-2-carboxamide], the half-inhibitory concentration (IC50) lay within 200 to 2000 nM.
With `CCO[C@H]1CN(c2ccc3c(n2)CC[C@H](NC(=O)c2sc4nc(C)ccc4c2N)C3)C[C@@H]1N` [Example 142, 3-amino-N-[(6S)-2-[(3S,4S)-3-amino-4-ethoxypyrrolidin-1-yl]-5,6,7,8-tetrahydroquinolin-6-yl]-6-methylthieno[2,3-b]pyridine-2-carboxamide], the IC50 is more than 2000 nM.
Then `COC[C@@H]1CNCCN1c1ccc2c(c1)OC[C@H](NC(=O)c1sc3nc(C)ccc3c1N)C2` [Example 155, 3-amino-N-[(3R)-7-[(2S)-2-(methoxymethyl)piperazin-1-yl]-3,4-dihydro-2H-1-benzopyran-3-yl]-6-methylthieno[2,3-b]pyridine-2-carboxamide], with 50 to 200 nM.
The figure for `CCn1ccc2cc(C(=O)N[C@H]3CCc4cc(N5C[C@H](OC)[C@@H](N)C5)cc(F)c4C3)nnc21` [Example 138, N-[(2S)-6-[(3S,4S)-3-amino-4-methoxypyrrolidin-1-yl]-8-fluoro-1,2,3,4-tetrahydronaphthalen-2-yl]-7-ethyl-7H-pyrrolo[2,3-c]pyridazine-3-carboxamide] is more than 2000 nM; for `Cc1nc2sc(C(=O)N[C@H]3COc4c(F)c(N5CC6CCC(C5)N6)cc(F)c4C3)c(N)c2s1` [Example 98, 6-amino-N-[(3R)-7-{3,8-diazabicyclo[3.2.1]octan-3-yl}-5,8-difluoro-3,4-dihydro-2H-1-benzopyran-3-yl]-2-methylthieno[2,3-d][1, 3]thiazole-5-carboxamide] it is 50 to 200 nM.
As to `COC[C@H]1CN(c2ccc3c(c2)OC[C@H](NC(=O)c2sc4nc(C)ccc4c2N)C3)C[C@@H]1N` [Example 164, 3-amino-N-[(3R)-7-[(3R,4S)-3-amino-4-(methoxymethyl)pyrrolidin-1-yl]-3,4-dihydro-2H-1-benzopyran-3-yl]-6-methylthieno[2,3-b]pyridine-2-carboxamide], the half-inhibitory concentration (IC50) lay within 200 to 2000 nM.
The figure for `Cc1ccc2c(N)c(C(=O)N[C@H]3CCc4cc(N5CC6CNCC(C5)O6)c(F)cc4C3)sc2n1` [Example 101, 3-amino-N-[(2S)-7-fluoro-6-{9-oxa-3,7-diazabicyclo[3.3.1]nonan-3-yl}-1,2,3,4-tetrahydronaphthalen-2-yl]-6-methylthieno[2,3-b]pyridine-2-carboxamide] is 200 to 2000 nM; for `CO[C@H]1CN(c2cc(F)c3c(c2C#N)OC[C@H](NC(=O)c2sc4nc(C)ccc4c2N)C3)C[C@@H]1N` [Example 175, 3-amino-N-[(3R)-7-[(3S,4S)-3-amino-4-methoxypyrrolidin-1-yl]-8-cyano-5-fluoro-3,4-dihydro-2H-1-benzopyran-3-yl]-6-methylthieno[2,3-b]pyridine-2-carboxamide] it is more than 2000 nM; for `Cc1ccc2c(N)c(C(=O)N[C@@H]3CCc4c(ccc(N5CC6CNCC(C5)O6)c4F)C3)sc2n1` [Example 100, 3-amino-N-[(2R)-5-fluoro-6-{9-oxa-3,7-diazabicyclo[3.3.1]nonan-3-yl}-1,2,3,4-tetrahydronaphthalen-2-yl]-6-methylthieno[2,3-b]pyridine-2-carboxamide] it is more than 2000 nM.
Then `CCn1ccc2cc(C(=O)N[C@H]3CCc4cc(N5C[C@H](OC)[C@@H](N)C5)ccc4C3)cnc21` [Example 132, N-[(2S)-6-[(3S,4S)-3-amino-4-methoxypyrrolidin-1-yl]-1,2,3,4-tetrahydronaphthalen-2-yl]-1-ethyl-1H-pyrrolo[2,3-b]pyridine-5-carboxamide], with more than 2000 nM; and `Cc1cc(C)c2c(N)c(C(=O)N[C@@H]3COc4cc(N5CCNCC5)c(F)c(F)c4C3)sc2n1` [Example 160, 3-amino-N-[(3S)-5,6-difluoro-7-(piperazin-1-yl)-3,4-dihydro-2H-1-benzopyran-3-yl]-4,6-dimethylthieno[2,3-b]pyridine-2-carboxamide], with 200 to 2000 nM.

The record behind these values is patent publication US11524966B1 (Valo Early Discovery, Inc., priority 2017, dated 2022).
